ChEMBL document CHEMBL4184318, “Identification of Fast-Acting 2,6-Disubstituted Imidazopyridines That Are Efficacious in the in Vivo Humanized Plasmodium falciparum NODscidIL2Rγ null Mouse Model of Malaria” (J Med Chem, 2018)
Converted amounts (≈) assume the structure as drawn.

Tests used:
Type in all cases: physicochemical
Conditions in all cases: read-out: Kinetic_solubility
[1] = Kinetic solubility of the compound in HCl at pH 2 after 20 hrs by shake flask method
[2] = Kinetic solubility of the compound in phosphate buffered saline at pH 6.5 after 20 hrs by shake flask method
[3] = Kinetic solubility of the compound in FaSSIF at pH 6.5 after 20 hrs by shake flask method

Compound	solubility kinetic at 20 h [1]	solubility kinetic at 20 h [2]	solubility kinetic at 20 h [3]
CC1(c2nc3cnc(Nc4ccc(C(F)(F)F)cn4)cc3[nH]2)CC1	200 µM (≈ 66.7 µg/mL)	188 µM (≈ 62.7 µg/mL)	179 µM (≈ 59.7 µg/mL)
FC(F)(F)c1cccc(-c2nc3cnc(Nc4ncccn4)cc3[nH]2)c1	155 µM (≈ 55.2 µg/mL)	< 5 µM	–
Fc1cnc(Nc2cc3[nH]c(-c4cccc(C(F)(F)F)c4)nc3cn2)c(F)c1	< 5 µM	< 5 µM	50 to 100 µM (≈ 19.6 to 39.1 µg/mL)
FC(F)(F)c1cccc(-c2nc3cnc(Nc4ccc(N5CCOCC5)cn4)cc3[nH]2)c1	87 µM (≈ 38.3 µg/mL)	< 5 µM	35 µM (≈ 15.4 µg/mL)
FC(F)(F)c1ccc(Nc2cc3[nH]c(C4CC4)nc3cn2)nc1	198 µM (≈ 63.2 µg/mL)	< 5 µM	123 µM (≈ 39.3 µg/mL)
FC(F)(F)c1cccc(-c2nc3cnc(Nc4cccnn4)cc3[nH]2)c1	161 µM (≈ 57.4 µg/mL)	< 5 µM	–
FC(F)(F)c1ccc(Nc2cc3[nH]c(CC4CC4)nc3cn2)nc1	186 µM (≈ 62 µg/mL)	118 µM (≈ 39.3 µg/mL)	156 µM (≈ 52 µg/mL)
FC(F)(F)c1ccc(Nc2cc3[nH]c([C@H]4CC[C@H](C(F)(F)F)CC4)nc3cn2)nc1	200 µM (≈ 85.9 µg/mL)	< 5 µM	104 µM (≈ 44.7 µg/mL)
FC(F)(F)c1ccc(Nc2cc3[nH]c(C4CCOC4)nc3cn2)nc1 (stereo not drawn)	200 µM (≈ 69.9 µg/mL)	166 µM (≈ 58 µg/mL)	180 µM (≈ 62.9 µg/mL)
CN1CCN(c2ccc(Nc3cc4[nH]c(-c5cccc(C(F)(F)F)c5)nc4cn3)nc2)CC1	190 µM (≈ 86.2 µg/mL)	–	< 5 µM
FC(F)(F)c1cccc(-c2nc3cnc(Nc4cccc(C(F)(F)F)n4)cc3[nH]2)c1	51 µM (≈ 21.6 µg/mL)	< 5 µM	50 to 100 µM (≈ 21.2 to 42.3 µg/mL)
FC(F)(F)c1cccc(-c2nc3cnc(Nc4ccncc4)cc3[nH]2)c1	200 µM (≈ 71.1 µg/mL)	10 µM (≈ 3.55 µg/mL)	–
Fc1ccc(Nc2cc3[nH]c(C4CCC(F)(F)CC4)nc3cn2)nc1	200 µM (≈ 69.5 µg/mL)	170 µM (≈ 59 µg/mL)	170 µM (≈ 59 µg/mL)
COc1cccnc1Nc1cc2[nH]c(-c3cccc(C(F)(F)F)c3)nc2cn1	116 µM (≈ 44.7 µg/mL)	< 5 µM	–
FC1(F)CC(c2nc3cnc(Nc4ccc(C(F)(F)F)cn4)cc3[nH]2)C1	181 µM (≈ 66.8 µg/mL)	118 µM (≈ 43.6 µg/mL)	161 µM (≈ 59.5 µg/mL)
FC(F)(F)c1cccc(-c2nc3cnc(Nc4cc(-c5nnn[nH]5)ccn4)cc3[nH]2)c1	< 5 µM	< 5 µM	< 5 µM
FC1(F)CCC(c2nc3cnc(Nc4ccc(C(F)(F)F)cn4)cc3[nH]2)C1 (stereo not drawn)	185 µM (≈ 70.9 µg/mL)	120 µM (≈ 46 µg/mL)	163 µM (≈ 62.5 µg/mL)
FC(F)(F)c1ccc(Nc2cc3[nH]c(C4CCOCC4)nc3cn2)nc1	196 µM (≈ 71.2 µg/mL)	155 µM (≈ 56.3 µg/mL)	168 µM (≈ 61 µg/mL)
Fc1ccnc(Nc2cc3[nH]c(-c4ccc(F)c(F)c4)nc3cn2)c1	166 µM (≈ 56.7 µg/mL)	< 5 µM	50 to 100 µM (≈ 17.1 to 34.1 µg/mL)

Further lines, results first:

solubility kinetic at 20 h [1]	solubility kinetic at 20 h [2]	solubility kinetic at 20 h [3]	Compound
< 5 µM	< 5 µM	50 to 100 µM (≈ 19.6 to 39.1 µg/mL)	Fc1ccc(-c2nc3cnc(Nc4cc(C(F)(F)F)ccn4)cc3[nH]2)cc1F
170 µM (≈ 70.3 µg/mL)	< 5 µM	< 5 µM	CNC(=O)c1ccc(Nc2cc3[nH]c(-c4ccc(C(F)(F)F)nc4)nc3cn2)nc1
6 µM (≈ 2.35 µg/mL)	< 5 µM	50 to 100 µM (≈ 19.6 to 39.1 µg/mL)	Fc1ccc(-c2nc3cnc(Nc4ccc(C(F)(F)F)cn4)cc3[nH]2)cc1F
182 µM (≈ 75.4 µg/mL)	12 µM (≈ 4.97 µg/mL)	16 µM (≈ 6.63 µg/mL)	COC(=O)c1ccc(Nc2cc3[nH]c(-c4ccc(C(F)(F)F)nc4)nc3cn2)nc1
200 µM (≈ 93.9 µg/mL)	33 µM (≈ 15.5 µg/mL)	58 µM (≈ 27.2 µg/mL)	O=C(c1ccc(Nc2cc3[nH]c(-c4ccc(C(F)(F)F)nc4)nc3cn2)nc1)N1CCOCC1
155 µM (≈ 55.2 µg/mL)	< 5 µM	–	FC(F)(F)c1cccc(-c2nc3cnc(Nc4cnccn4)cc3[nH]2)c1
< 5 µM	< 5 µM	50 to 100 µM (≈ 18.7 to 37.3 µg/mL)	Fc1ccc(Nc2cc3[nH]c(-c4cccc(C(F)(F)F)c4)nc3cn2)nc1
8 µM (≈ 3.2 µg/mL)	< 5 µM	< 5 µM	O=C(O)c1ccc(Nc2cc3[nH]c(-c4ccc(C(F)(F)F)nc4)nc3cn2)nc1
99 µM (≈ 43.5 µg/mL)	< 5 µM	< 5 µM	O=C(NC1CC1)c1ccc(Nc2cc3[nH]c(-c4ccc(C(F)(F)F)nc4)nc3cn2)nc1
< 5 µM	< 5 µM	60 µM (≈ 24 µg/mL)	O=C(O)c1ccnc(Nc2cc3[nH]c(-c4cccc(C(F)(F)F)c4)nc3cn2)c1
< 5 µM	< 5 µM	–	COc1ccnc(Nc2cc3[nH]c(-c4cccc(C(F)(F)F)c4)nc3cn2)c1
< 5 µM	< 5 µM	< 5 µM	NC(=O)c1ccc(Nc2cc3[nH]c(-c4cccc(C(F)(F)F)c4)nc3cn2)nc1
196 µM (≈ 88.9 µg/mL)	< 5 µM	< 5 µM	O=C(c1ccc(Nc2cc3[nH]c(-c4ccc(C(F)(F)F)nc4)nc3cn2)nc1)N1CCCC1
26 µM (≈ 9.65 µg/mL)	< 5 µM	–	FC(F)(F)Oc1ccc(-c2nc3cnc(Nc4ccccn4)cc3[nH]2)cc1
< 5 µM	< 5 µM	50 to 100 µM (≈ 19 to 38 µg/mL)	N#Cc1ccc(Nc2cc3[nH]c(-c4cccc(C(F)(F)F)c4)nc3cn2)nc1
< 5 µM	< 5 µM	< 5 µM	O=C(O)c1ccnc(Nc2cc3[nH]c(-c4ccc(C(F)(F)F)nc4)nc3cn2)c1
200 µM (≈ 93.7 µg/mL)	168 µM (≈ 78.7 µg/mL)	161 µM (≈ 75.4 µg/mL)	O=C(c1ccc(Nc2cc3[nH]c(-c4ccc(C(F)(F)F)nc4)nc3cn2)nc1)N1CCNCC1
200 µM (≈ 71.3 µg/mL)	< 5 µM	–	FC(F)(F)c1cccc(-c2nc3cnc(Nc4ccncn4)cc3[nH]2)c1
11 µM (≈ 4.04 µg/mL)	7 µM (≈ 2.57 µg/mL)	9 µM (≈ 3.31 µg/mL)	O=C(O)c1ccc(Nc2cc3[nH]c(-c4ccc(F)c(F)c4)nc3cn2)nc1
< 5 µM	6 µM (≈ 2.4 µg/mL)	6 µM (≈ 2.4 µg/mL)	O=C(O)c1ccc(Nc2cc3[nH]c(-c4cccc(C(F)(F)F)c4)nc3cn2)nc1
164 µM (≈ 70.3 µg/mL)	< 5 µM	127 µM (≈ 54.4 µg/mL)	CCOC(=O)c1ccc(Nc2cc3[nH]c(-c4ccc(C(F)(F)F)nc4)nc3cn2)nc1
85 µM (≈ 32.8 µg/mL)	< 5 µM	–	COc1cccc(Nc2cc3[nH]c(-c4cccc(C(F)(F)F)c4)nc3cn2)n1
< 5 µM	< 5 µM	–	COc1ccc(Nc2cc3[nH]c(-c4cccc(C(F)(F)F)c4)nc3cn2)nc1
< 5 µM	< 5 µM	< 5 µM	FC(F)(F)c1cccc(-c2nc3cnc(Nc4ccc(-c5nnn[nH]5)cn4)cc3[nH]2)c1
